Measurements: patent US20260356814A1, “INDOLINE DERIVATIVES AS SEROTONERGIC AGENTS USEFUL FOR THE TREATMENT OF DISORDERS RELATED THERETO” (MINDSET PHARMA INC., priority 2022, published 2026)

What follows are compounds tested against T1, human 5-HT1A receptor (Homo sapiens, UniProt P08908) (assay: Human 5-HT1A: Radioligand binding assay ([3H]-8-Hydroxy-DPAT)). Conditions: [3H]-8-Hydroxy-DPAT displacement, 27° C., 90 min, pH 7.4; read-out: h5-HT1A, IC50.
T1 construct: expressed in transfected cells; host or cells: CHO (HTR1A&Ga15-CHO)
T1 sequence (P08908 1-422): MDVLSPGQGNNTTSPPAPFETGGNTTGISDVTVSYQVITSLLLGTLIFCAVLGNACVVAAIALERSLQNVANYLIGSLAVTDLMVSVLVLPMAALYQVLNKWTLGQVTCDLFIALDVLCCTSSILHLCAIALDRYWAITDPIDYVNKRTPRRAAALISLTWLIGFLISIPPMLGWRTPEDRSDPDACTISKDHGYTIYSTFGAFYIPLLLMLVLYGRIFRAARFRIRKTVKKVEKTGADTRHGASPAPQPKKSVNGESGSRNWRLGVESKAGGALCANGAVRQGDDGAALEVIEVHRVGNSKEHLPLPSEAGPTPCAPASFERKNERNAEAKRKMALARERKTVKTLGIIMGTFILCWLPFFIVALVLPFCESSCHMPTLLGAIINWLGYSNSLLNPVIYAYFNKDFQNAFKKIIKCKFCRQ
Method: The objective of this study was to evaluate the binding properties of test compounds on 5-hydroxytryptamine receptor 1A (5-HT1A).
• 1. The assay buffer was prepared following the table below.
• 2. 8 doses of reference and test compounds were prepared starting from 10 mM stock solution as required by 5-fold serial dilutions with 100% (v/v) DMSO. • 3. UniFilter-96 GF/B plate was pretreated: • i. 50 μl/well of 0.5% (v/v) PEI was added to UniFilter-96 GF/B plates. The plates were sealed and incubated at 4° C. for 3 hrs. • ii. After incubation, the plates were washed 3 times with ice-cold wash buffer (50 mM Tris, pH7.4). • 4. Assay plate was prepared: • i. Cell membrane was diluted with assay buffer and 100 μl/well was added to 96 round well plates to reach a concentration of 20 μg/well. • ii. 8 concentrations of reference or test compounds were prepared and 50 μl/well was added to 96 round deep well plates. • iii. [3H]-8-Hydroxy-DPAT was diluted with assay buffer to 2 nM (4X final concentration) and 50 μl/well was added to 96 round well plates. • 5. The plate was centrifuged at 1000 rpm for 30 secs and then agitated at 600 rpm, R.T. for 5 min. • 6. The plates were sealed and the plate was incubated at 27° C. for 90 min. • 7. The incubation was stopped by vacuum filtration onto GF/B filter plates followed by 4 times washing with ice-cold wash buffer (50 mM Tris, pH7.4). • 8. The plates were dried at 37° C. for 45 min. • 9. The filter plates were sealed and 40 μl/well of scintillation cocktail was added. • 10. The plate was read by using a Microbeta2 microplate counter.
• 1. For reference and test compounds, the results were expressed as % Inhibition, using the normalization equation: N=100−100×(U−C2)/(C1−C2), where U is the unknown value, C1 is the average of high controls, and C2 is the average of low controls. • 2. The IC50 was determined by fitting percentage of inhibition as a […] of compound concentrations with Hill equation using XLfit.

| Structure (SMILES) | IC50 [nM] |
| --- | --- |
| COc1cccc2c1N(C[C@H]1CCCN1C)CC2 [(R)-I-46, (R)-7-Methoxy-1-((1-methylpyrrolidin-2-yl)methyl) indoline] | 211 |
| [2H]C([2H])([2H])N(CCN1CCc2ccccc21)C([2H])([2H])[2H] [Compound I-71, 2-(Indolin-1-yl)-N,N-bis(methyl-d3) ethan-1-amine] | 1620 |
| COc1ccc2c(c1)N(C[C@H]1CCCN1C)CC2 [(R)-I-58, (R)-6-Methoxy-1-((1-methylpyrrolidin-2-yl)methyl) indoline] | 13 |
| COc1cccc2c1CCN2C[C@H]1CCCN1C [(R)-I-47, (R)-4-Methoxy-1-((1-methylpyrrolidin-2-yl)methyl) indoline] | 15300 |
| COc1ccc2c(c1)N(C[C@H]1CCCN1)CC2 [(R)-I-59, (R)-6-Methoxy-1-(pyrrolidin-2-ylmethyl) indoline] | 85 |
| [2H]C([2H])([2H])N1CCC[C@@H]1C([2H])([2H])N1CCc2ccccc21 [(R)-I-1, (R)-1-((1-(Methyl-d3)pyrrolidin-2-yl)methyl-d2) indoline] | 444 |
| COc1cc2c(cc1OC)N(C[C@H]1CCCN1C)CC2 [(R)-I-34, (R)-5,6-dimethoxy-1-((1-methylpyrrolidin-2-yl)methyl) indoline] | 7750 |
| [2H]C([2H])([2H])N1CCC[C@@H]1C([2H])([2H])N1CCc2ccc(OC)cc21 [(R)-I-57, (R)-6-Methoxy-1-((1-(methyl-d3)pyrrolidin-2-yl)methyl-d2) indoline] | 10 |
| [2H]C([2H])([2H])N(CCN1CCc2ccc(OC)cc21)C([2H])([2H])[2H] [Compound I-70, 2-(6-Methoxyindolin-1-yl)-N, N-bis(methyl-d3) ethan-1-amine] | 193 |
| [2H]C([2H])([2H])Oc1ccc2c(c1)N(C([2H])([2H])[C@H]1CCCN1C([2H])([2H])[2H])CC2 [(R)-I-28, (R)-6-(Methoxy-d3)-1-((1-(methyl-d3)pyrrolidin-2-yl)methyl-d2) indoline] | 5.04 |
